According to patent US10966423B2, “Anti-microbial agent comprising xanthohumol and the use thereof in food products” (Purac Biochem B.V., priority 2015, dated 2021):
Converted amounts (≈) assume the structure as drawn. Read-outs that look alike come from different tables or passages of the source.

How the values were obtained:
Assay type in all cases: cell-based
[1] = tested on: lactic acid bacteria (L. curvatus, 3×L. plantarum and L. mesenteroides); assay: shelf life of sausages inoculated with lactic acid bacteria
Method: Sausages were produced according to the following procedure. The ingredients defined as weight percentages in Table 5 were used for the preparation of the sausage. Xanthoflav was used as such, without a preparation step such as applied in Example 1.
First the meat was shredded, and salt, tri polyphosphate and half of the water was added. After mixing very well, the other ingredients were added. The meat dough was put in a cook crimp bag and vacuum sealed. After sealing the bags were canned. The sausages were cooked in a cooking cabinet for 120 minutes at 75° C. and afterwards cooled down to 15° C. […]
In a first step an inoculum was prepared as follows. Cultures of lactic acid bacteria (L. curvatus, 3×L. plantarum and L. mesenteroides) are started from plate and incubated overnight at 30° C. in screw-capped tubes (100×16 mm) containing 10 ml MRS broth.
Sausages were inoculated to a final level of about 1000 (10^3) CFU per g product. The sausage was inoculated with 1% Inoculum (approximately 5 ml Inoculum per 500 gram ground meat). […]
Fifty μl of the homogenate or dilution was subsequently plated on MRS agar using an Eddyjet type 1.23 spiral plater (IUL Instruments, Barcelona, Spain). […] The colonies were counted with the Acolyte Supercount automatic colony counter (Synoptics, Cambridge, UK) using the Synoptics software package. […]

Penicillium roquefortii [2] = assay: visible growth of mould hyphae in MEA broth; conditions: MEA broth pH 3.5, 14 days, 25° C., 10^4 spores per ml; xanthohumol 0.008 wt %, propionate 0.085 wt %
Method: (§1) Two molds, Aspergillus Niger and Penicillium roquefortii were tested on the combinatory effect of xanthohumol in combination with propionate. MEA broth was inoculated with spores of the fungi to a concentration of 10^4 spores per ml. In this example use has been made of the stock solution of xanthohumol as has been described in example 1 above. 4 ml of said stock solution was added to 96 ml of broth to obtain a 0.008% w/w solution in broth.
(§2) Propionate was added to an end concentration of 0.085% of propionate in broth. Also a solution was made with 0.008% w/w of xanthohumol and 0.085% of propionate in broth. As a control experiment broth without antimicrobial components was used. The pH of all media was set to 3.5. After 14 days of incubation at 25° C., the broth was inspected for visible growth of mould hyphae.

Aspergillus Niger = assay: visible growth of mould hyphae in MEA broth; conditions: MEA broth pH 3.5, 14 days, 25° C., 10^4 spores per ml; xanthohumol 0.008 wt %, propionate 0.085 wt %
Method: as §1, §2

Lactobacillus plantarum [3] = assay: growth of Lactobacillus plantarum in food products (baby food, pasta sauce); conditions: for Lactobacillus plantarum cell density: xanthohumol 0.004 mg/ml
Method: In this example, the influence of xanthohumol on growth of Lactobacillus plantarum in baby food and in pasta sauce was assessed. For this purpose the baby food was sterilized and the pH was adjusted at pH 4.8, and the pasta sauce was sterilized and the pH was adjusted to pH 4.2. At time-point t=0, three samples of both the baby food and the pasta sauce were inoculated with a Lactobacillus plantarum starter culture, at a final Lactobacillus cell density of approximately 1*10^4 cells/ml. For the baby food and the pasta sauce, one sample each was inoculated in the presence of 0.2% by weight xanthohumol composition to a final concentration of xanthohumol in the food product of 0.004 mg/ml. Lactobacillus plantarum cell density was determined in the food products at t=0 and at t=24 hours.

Aspergillus flavus = assay: mold outgrowth (OD) in semi-solid MEA agar, xanthohumol/calcium propionate gradient; conditions: FIG. 4; day 13, pH 6; calcium propionate 0-0.5%, xanthohumol 0-0.00195%
Method: (§3) Five molds, Penicillium roquefortii, Aspergillus flavus, Fusarium oxysporum, Paecilomyces variotii, and Mucor plumbeus, were tested on the combinatory effect of xanthohumol combined with calcium propionate. In this example use has been made of a stock solution of 0.52% w/w XanthoFlav (equivalent to 0.0104% w/w xanthohumol) prepared in a similar manner as that described in example 1 above, as well as a stock solution of calcium propionate at 1.6% w/w. A modified semi-solid MEA agar was prepared by mixing 50 g of Malt Extract broth (Oxoid) with 7.5 g of Bacteriological Agar No. 1 (Oxoid) to create a 2× reduced agar MEA. This was autoclaved at 120° C. for 15 minutes. Bottles of this MEA were held at 50° C. until ready for inoculation, at which point they were inoculated with a single strain of the above listed molds at approximately 10^4 spores per ml. This level of inoculation ensures 500-1000 spores per well in the 96 well plate. All media was set to pH 6.
(§4) The 2×MEA was mixed with the stock solutions of xanthohumol, calcium propionate, and sterilized H2O as a diluent in 96 well plates using an automated plate filler to create a concentration gradient of calcium propionate ranging from 0% to 0.5% along one axis and xanthohumol from 0% to 0.00195% along the other axis. Wells containing 0% of both antimicrobials served as a control. This allowed for testing approximately 24 different combinations of the two antimicrobials on one plate. Each well contained 75 μL of inoculated 2× reduced agar MEA, 75 μL of a mix of antimicrobials/diluent, and was capped with 75 μL of paraffin oil after the agar had set. Ninety-six well plates were then sealed with an oxygen permeable membrane to prevent contamination of wells.
(§5) OD measurements were taken approximately once a day, and outgrowth (measured by an increase in OD) was tracked over time. Measurements at the final reading (day 13) were placed in a 3D graph to visualize the additive effects of the two antimicrobials as levels of each increased across the plate.

Mucor plumbeus = assay: as above; conditions: FIG. 5; day 13, pH 6; calcium propionate 0-0.5%, xanthohumol 0-0.00195%
Method: as §3, §4, §5

Fusarium oxysporum = assay: as above; conditions: FIG. 2; day 13, pH 6; calcium propionate 0-0.5%, xanthohumol 0-0.00195%
Method: as §3, §4, §5

Penicillium roquefortii [4] = assay: as above; conditions: FIG. 1; day 13, pH 6; calcium propionate 0-0.5%, xanthohumol 0-0.00195%
Method: as §3, §4, §5

Paecilomyces variotii = assay: as above; conditions: FIG. 3; day 13, pH 6; calcium propionate 0-0.5%, xanthohumol 0-0.00195%
Method: as §3, §4, §5

Lactobacillus farciminis = assay: minimum inhibitory concentration on lactic acid bacteria, overnight in MRS medium; conditions: Companilactobacillus farciminis, strain AR053, 30° C., 10^5 cfu/ml, read-out: MIC calculated to xanthohumol
Method: (§6) One part xanthohumol Xantho-Flav Extract (with 2% of xanthohumol) on diatomaceous earth is incubated with 9 parts of hot water at 100° C., boiling for <1 minute while vigorously shaking. After incubation, solid material is discarded. This way, a stock solution with 10% of Xanthoflav or about 0.2% xanthohumol (2 mg/ml) is obtained, which is used in the following examples.
(§7) For testing the anti-microbial activity a test composition comprising xanthohumol was applied. The test composition was prepared as follows. At the highest concentration 100 μl of the xanthohumol stock solution at 2 mg/ml in water (See Example 1) was added to 100 μl of 2 times concentrated MRS medium, providing a test composition comprising 1 mg/ml by weight xanthohumol in MRS medium.
(§8) Pre-cultures of test bacteria were cultured using standard techniques. Bacteria were cultured in MRS medium 48 hrs before the start of the experiments.
(§9) Five μl of the bacterium pre-cultures was brought in 200 μl of test medium (medium+component+water) and mixed with a concentration series of the test composition comprising xanthohumol. Final bacterium density at the start of the overnight experiment was 10^5 cfu/ml. Xanthohumol was tested up to a concentration of 0.01 mg/ml (based on an addition level of up to 0.05% w/w of Xanthoflav). Negative control was inoculated broth, positive control was inoculated MRS medium. Bacterium cultures were cultured overnight at 30° C., under constant shaking. After incubation, the minimum inhibitory concentration for each test organism was scored (Table 1).

[5] = tested on: Lactobacillus acidophilus; assay: as above; conditions: DSM20079, strain DSM 20079, 30° C., 10^5 cfu/ml, read-out: MIC calculated to xanthohumol
Method: as §6, §7, §8, §9

Lactobacilllus curvatus = assay: as above; conditions: 10^5 cfu/ml
Method: as §6, §7, §8, §9

Lactobacillus brevis = assay: as above; conditions: Levilactobacillus brevis, 10^5 cfu/ml, read-out: MIC calculated to xanthohumol
Method: as §6, §7, §8, §9

[6] = tested on: Leuconostoc mesenteroides; assay: as above; conditions: strain AR049, 30° C., 10^5 cfu/ml, read-out: MIC calculated to xanthohumol
Method: as §6, §7, §8, §9

Lactobacillus plantarum [7] = assay: as above; conditions: Lactiplantibacillus plantarum, 10^5 cfu/ml, read-out: MIC calculated to xanthohumol
Method: as §6, §7, §8, §9

C[C@@H]1OC(=O)[C@H](C)OC1=O [Nr 3: 0.8% Lactide, Lactide]
Shelf life of sausages, Days till 10^7 cfu/g ([1]; inoculated about 10^3 CFU per g, vacuum sealed, stored at 7° C., control 8.0): 12.5 Days
shelf life improvement as compared to the control ([1]; sausages stored at 7° C.): about 4 days

CCC(=O)O [propionate, reference compound]
visible growth of mould hyphae (Penicillium roquefortii [2]): Growth
visible growth of mould hyphae (Aspergillus Niger): Growth

COc1cc(O)c(CC=C(C)C)c(O)c1C(=O)/C=C/c1ccc(O)cc1 [xanthohumol]
Lactobacillus plantarum cell density (Lactobacillus plantarum [3]; baby food pH 4.8, 0 h): 3.8 × 10^4
Lactobacillus plantarum cell density (Lactobacillus plantarum [3]; baby food pH 4.8, 24 h, control 3 × 10^7): 3 × 10^4
inhibitory effect on Lactobacillus plantarum (Lactobacillus plantarum [3]; in baby food and pasta sauce): strong inhibitory effect
Lactobacillus plantarum cell density (Lactobacillus plantarum [3]; pasta sauce pH 4.2, 0 h): 3 × 10^4
Lactobacillus plantarum cell density (Lactobacillus plantarum [3]; pasta sauce pH 4.2, 24 h, control 6 × 10^5): <100
Inhibition of A. flavus (outgrowth by OD) (Aspergillus flavus): inhibiting effect by itself
Inhibition of M plumbeus (outgrowth by OD) (Mucor plumbeus): inhibiting effect by itself
Inhibition of F. oxysporum (outgrowth by OD) (Fusarium oxysporum): inhibiting effect by itself
Inhibition of P. roquefortii (outgrowth by OD) (Penicillium roquefortii [4]): inhibiting effect by itself
Inhibition of P. variotii (outgrowth by OD) (Paecilomyces variotii): inhibiting effect by itself
visible growth of mould hyphae (Penicillium roquefortii [2]): Growth
visible growth of mould hyphae (Aspergillus Niger): Growth
MIC (Lactobacillus farciminis): 4 µg/mL (≈ 11.3 µM)
MIC [5]: 10 µg/mL (≈ 28.2 µM)
MIC calculated to xanthohumol (Lactobacilllus curvatus; strain AR095, 30° C.): 10 µg/mL (≈ 28.2 µM)
MIC (Lactobacilllus curvatus; strain Zand 2, 30° C., read-out: MIC calculated to xanthohumol): 10 µg/mL (≈ 28.2 µM)
MIC (Lactobacillus brevis; LMG6906, strain LMG 6906, 30° C.): 2 µg/mL (≈ 5.64 µM)
MIC (Lactobacillus brevis; strain AR043, 30° C.): 2 µg/mL (≈ 5.64 µM)
MIC [6]: 2 µg/mL (≈ 5.64 µM)
MIC (Lactobacillus plantarum [7]; DSM20174, strain DSM 20174, 30° C.): 4 µg/mL (≈ 11.3 µM)
MIC (Lactobacillus plantarum [7]; strain AR052, 30° C.): 2 µg/mL (≈ 5.64 µM)
